Assay results: ChEMBL document CHEMBL4813985, “Lead optimization generates selenium-containing miconazole CYP51 inhibitors with improved pharmacological profile for the treatment of fungal infections” (Eur J Med Chem, 2021)
In brackets after ≈: the same amount, converted by molar mass. Activity calls are given as the source filed them. The rule behind the calls is not given here.

What was measured:
[1] = biological target: T1, Lanosterol 14-alpha demethylase (Candida albicans (strain SC5314 / ATCC MYA-2876) (Yeast), UniProt P10613); assay: Inhibition of CYP51 in Candida albicans ATCC SC5314 assessed as ergosterol level at 8 ug/ml after 16 hrs by GC-MS analysis (reference value: 98.3%); design: scale not given: the % may be the effect or the level left; details: candida albicans sc5314, 16 h, at 8 µg/mL
T1 sequence (P10613 whole entry): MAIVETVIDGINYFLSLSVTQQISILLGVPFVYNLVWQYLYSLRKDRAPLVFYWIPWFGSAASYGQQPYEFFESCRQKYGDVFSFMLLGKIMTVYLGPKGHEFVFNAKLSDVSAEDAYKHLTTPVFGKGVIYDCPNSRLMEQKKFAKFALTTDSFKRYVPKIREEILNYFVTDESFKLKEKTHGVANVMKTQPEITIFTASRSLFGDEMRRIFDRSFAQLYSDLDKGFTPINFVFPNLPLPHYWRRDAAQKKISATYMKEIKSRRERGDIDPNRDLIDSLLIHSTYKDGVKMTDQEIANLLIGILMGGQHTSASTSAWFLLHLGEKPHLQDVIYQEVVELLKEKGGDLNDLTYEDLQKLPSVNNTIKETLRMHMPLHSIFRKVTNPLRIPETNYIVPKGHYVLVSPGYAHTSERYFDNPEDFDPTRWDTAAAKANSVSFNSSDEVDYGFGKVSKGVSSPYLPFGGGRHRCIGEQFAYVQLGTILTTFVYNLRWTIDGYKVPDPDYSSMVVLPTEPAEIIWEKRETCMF

[2] = Hemolytic activity in rabbit RBC assessed as hemolysis ratio at 8 ug/ml measured after 3 hrs by microplate reader assay relative to control; format: ADME, cell-based, Oryctolagus cuniculus, Erythrocyte; details: rabbit red blood cells (erythrocytes), at 8 µg/mL, read-out: Activity
Candida albicans [3] = assay: Anti-biofilm activity in Candida albicans CPCC400616 assessed as inhibition of biofilm formation at 32 ug/ml incubated for 24 hrs with 3 hrs precultured fungal suspension by XTT assay relative to control; format: functional
[4] = biological target: T1, Lanosterol 14-alpha demethylase; assay: Inhibition of CYP51 in Candida albicans ATCC SC5314 assessed as Obtusifoliol level at 0.5 ug/ml after 16 hrs by GC-MS analysis (reference value: 0%); design: scale not given: the % may be the effect or the level left; details: candida albicans sc5314, 16 h, at 0.5 µg/mL
[5] = biological target: T1, Lanosterol 14-alpha demethylase; assay: Inhibition of CYP51 in Candida albicans ATCC SC5314 assessed as Eburicol level at […] ug/ml after 16 hrs by GC-MS analysis (reference value: 0%); design: scale not given: the % may be the effect or the level left; details: candida albicans sc5314, 16 h, dose 0.125 µg/ml
[Candida] zeylanoides = Antifungal activity against Candida zeylanoides CMGCC2.3739 measured after 24 hrs by broth microdilution assay; format: functional; details: Dujonia zeylanoides
Candida albicans [6] = assay: Fungicidal activity against Candida albicans CPCC400616 at 2 ug/ml incubated for 24 hrs and measured after 24 hrs culturing on PDA plate by time-kill kinetics analysis; format: functional, organism-based; details: dose 2.0 µg/ml, time 48.0 hrs
PC-3 = assay: Cytotoxicity against human PC3 cells assessed as reduction in cell viability incubated for 96 hrs by MTT assay; format: cell-based; details: PC-3, 96 h, read-out: IC50
Erythrocyte = assay: Hemolytic activity in rabbit RBC measured after 3 hrs by microplate reader assay; format: ADME, cell-based, Oryctolagus cuniculus
[7] = biological target: T1, Lanosterol 14-alpha demethylase; assay: Inhibition of CYP51 in Candida albicans ATCC SC5314 assessed as Eburicol level at 0.5 ug/ml after 16 hrs by GC-MS analysis (reference value: 0%); design: scale not given: the % may be the effect or the level left; details: candida albicans sc5314, 16 h, at 0.5 µg/mL
Candida albicans [8] = assay: Ratio of MFC for Candida albicans CPCC400616 incubated for 48 hrs followed by culturing on PDA plate for 24 hrs to MIC for Candida albicans CPCC400616 measured after 24 hrs; format: functional
Candida albicans [9] = assay: Antifungal activity against Candida albicans CPCC400616 measured after 24 hrs by broth microdilution assay; format: functional
Candida albicans [10] = assay: Antifungal activity against Candida albicans ATCC SC5314 infected in mouse model of candidiasis assessed as reduction in kidney fungal burden at 0.6 mg/kg/day, ip dosed at 2 hrs post infection and dosed for 4 days; format: functional, organism-based; details: time 4.0 day
[11] = AUC (0 to t) in Sprague-Dawley rat at 5 mg/kg, po by LC-MS analysis; format: ADME, organism-based; design: dose 5 mg/kg; details: in vivo
Candida albicans [12] = assay: Antifungal activity against fluconazole-resistant Candida albicans CaR assessed as inhibition of microbial growth after 24 hrs by broth microdilution method; format: functional
Candida albicans [13] = assay: Antifungal activity against fluconazole-resistant Candida albicans 632 assessed as inhibition of microbial growth after 24 hrs by broth microdilution method; format: functional
Candida albicans [14] = assay: Potency index, ratio of fluconazole MIC to test compound MIC for Candida albicans CPCC400616 measured after 24 hrs by broth microdilution assay; format: functional
[15] = Selectivity ratio of IC50 for human PC-3 cells to MIC for Candida albicans CPCC400616; format: toxicity
[16] = Selectivity ratio of IC50 for human HL-60 cells to MIC for Candida albicans CPCC400616; format: toxicity
MCF-10A = assay: Cytotoxicity against human MCF-10A cells assessed as reduction in cell viability incubated for 96 hrs by MTT assay; format: cell-based; details: read-out: IC50
Candida albicans [17] = assay: Antifungal activity against fluconazole-resistant Candida albicans 901 assessed as inhibition of microbial growth after 24 hrs by broth microdilution method; format: functional
[18] = Selectivity ratio of IC50 for human MCF-10A cells to MIC for Candida albicans CPCC400616; format: toxicity
Candida albicans [19] = assay: Antifungal activity against Candida albicans ATCC SC5314 infected in mouse model of candidiasis assessed as reduction in kidney fungal burden at 0.4 mg/kg/day, ip dosed at 2 hrs post infection and dosed for 4 days; format: functional, organism-based; details: time 4.0 day
Candida albicans [20] = assay: Fungicidal activity against Candida albicans CPCC400616 at 2 ug/ml incubated within 8 hrs and measured after 24 hrs culturing on PDA plate by time-kill kinetics analysis (reference value: 5 log10CFU/ml); format: functional; details: dose 2 µg/ml; time 32 hrs
[21] = Selectivity ratio of IC50 for human MDA-MB-231 cells to MIC for Candida albicans CPCC400616; format: toxicity
[22] = Half life in Sprague-Dawley rat at 2 mg/kg, iv by LC-MS analysis; format: ADME, organism-based; details: in vivo
[23] = Oral bioavailability in Sprague-Dawley rat at 5 mg/kg by LC-MS analysis; format: ADME, organism-based; details: in vivo
Candida albicans [24] = assay: Anti-biofilm activity in Candida albicans CPCC400616 assessed as inhibition of biofilm formation at 16 ug/ml incubated for 24 hrs with 3 hrs precultured fungal suspension by XTT assay relative to control; format: functional
Candida albicans [25] = assay: Fungicidal activity against Candida albicans CPCC400616 incubated for 24 hrs and measured after 24 hrs culturing on PDA plate by time-kill kinetics analysis; format: functional, organism-based; details: dose 0.25-2 µg/ml, time 48.0 hrs
[26] = Half life in Sprague-Dawley rat at 5 mg/kg, po by LC-MS analysis; format: ADME, organism-based; details: in vivo
Candida albicans [27] = assay: Antifungal activity against fluconazole-resistant Candida albicans 17# assessed as inhibition of microbial growth after 24 hrs by broth microdilution method; format: functional
[28] = AUC (0 to t) in Sprague-Dawley rat at 2 mg/kg, iv by LC-MS analysis; format: ADME, organism-based; design: dose 2 mg/kg; details: in vivo
Candida albicans [29] = assay: Antifungal activity against fluconazole-resistant Candida albicans 904 assessed as inhibition of microbial growth after 24 hrs by broth microdilution method; format: functional

Which results are given for `Clc1ccc(COC(Cn2ccnc2)c2ccc(Cl)cc2Cl)c(Cl)c1` (stereo unspecified) [MICONAZOLE]?
Activity [1]: 4.1%; hemolysis at 3 h, 8 ug/ml [2]: 87.3%; inhibition at 32 µg/mL (Candida albicans [3]): 50%; Activity [4]: 9%; Activity [5]: 64.8%; MIC ([Candida] zeylanoides): 1 µg/mL (≈ 2.4 µM); Activity (Candida albicans [6]): Active; IC50 (PC-3): 13.4 µM; MHC (Erythrocyte): 8 µg/mL; Activity [7]: 75.1%; Ratio (Candida albicans [8]): 8; MIC (Candida albicans [9]): 0.25 µg/mL (≈ 0.601 µM)

Which results are given for `Fc1ccc([Se]C(Cn2ccnc2)c2ccc(F)cc2F)cc1` (stereo unspecified)?
Activity [1]: 2.1%; Activity (Candida albicans [10]): Active; AUC(0-t) [11]: 1260 ng·h/mL; MIC (Candida albicans [12]): 1 µg/mL; MIC (Candida albicans [13]): 0.5 µg/mL; hemolysis at 3 h, 8 ug/ml [2]: 0.33%; Ratio (Candida albicans [14]): 8; selectivity ratio [15]: 38; Activity [4]: 9.9%; Activity [5]: 73.2%; selectivity ratio [16]: 38; IC50 (MCF-10A): 59.4 µM; MIC (Candida albicans [17]): 0.5 µg/mL; selectivity ratio [18]: 38; Activity (Candida albicans [19]): Active; MIC ([Candida] zeylanoides): 0.25 µg/mL (≈ 0.656 µM); IC50 (PC-3): 54.4 µM; Activity (Candida albicans [20]): 2 log10CFU/ml; selectivity ratio [21]: 38; half-life [22]: 1.89 h; bioavailability [23]: 22.3%; inhibition at 16 µg/mL (Candida albicans [24]): 80%; Activity [7]: 75.1%; Activity (Candida albicans [25]): Dose-Dependent Effect; half-life [26]: 1.93 h; MIC (Candida albicans [27]): 0.06 µg/mL; AUC(0-t) [28]: 2250 ng·h/mL; MIC (Candida albicans [9]): 0.25 µg/mL (≈ 0.656 µM); MIC (Candida albicans [29]): 0.06 µg/mL
